From US20240358705A1, “COMPOSITIONS AND METHODS FOR TREATMENT OF CANCER” (Board of Supervisors of Louisiana State University and …, priority 2021, published 2024)

Experiments:
Assay type in all cases: cell-based, mouse
CD8 T cells [1] = test: Single-cell RNA sequencing; conditions: 10 μM, 16 hours
Description: Treated CD8 T cells were prepared following the in vitro T cell activation method and incubated for 16 hours at 37° C., […]. Treated T cells were mixed with treated BM-MDSCs at a […] (T cell): 30% (BM-MDSC) ratio moments before analysis. 10,000 cells with greater than 90% viability were used in the analysis at a concentration of 1,000 cells/μl. Barcoded cDNA libraries were prepared using a chromium next GEM single-cell 3′ reagent kit v3.1 (10× Genomics #1000127) following the manufacturer's instructions. […] (Agilent, Santa Clara, CA) DNA was subsequently quantified by fluorometry using a Qubit dsDNA high sensitivity assay kit (Invitrogen #Q32854). DNA libraries were pooled in equimolar ratios and sequenced using an Illumina NextSeq 500 (Illumina, San Diego, CA) following 10× Genomics' instructions. […] Doublets were subsequently removed using DoubletFinder (https://github.com/chris-mcginnis-ucsf/DoubletFinder). An unsupervised clustering and plotting using UMAPs was completed on the remaining cells. CD8 T cells were identified by first conducting CD3 followed by CD8 refinement and reclustering. To characterize the CD8 subsets, the top 50 differentially expressed genes between each subcluster were compared against publicly available datasets, and known genes associated with activation, exhaustion, and memory T cell states. To determine changes in metabolism and cytotoxicity, a curated list of genes associated with glucose, fatty acid, lipid metabolism, and cytotoxicity were generated. Average gene expression by treatment group was determined for each gene and visualized by heatmap.

BM-MDSCs = test: Arginase-I and iNOS immunoblot in BM-MDSCs; conditions: for arginase-I levels, reduction compared to DMSO / iNOS production, reduction compared to DMSO: 72 hours
Description: Bone marrow cells were isolated by flushing the tibia and femurs of wild-type C57BL/6N mice. […] To generate BM-MDSCs, 3×10^6 cells were plated in a 6-well dish and incubated at 37° C., 5% CO2 for 96 hours. For treatment, drugs were administered at either 3 μM or 10 μM concentrations and added to the BM-MDSC cell culture well 24 hours after plating.
Protein concentration was quantified using a BCA protein assay kit (Thermo #A53225). […] of protein diluted with 1×LDS sample buffer (Life Technologies #B0008) and 1×sample reducing agent (Life Technologies #B0009), were denatured at 95° C. for 5 minutes. Denatured T cell protein was resolved using a 10% Bolt Bis-Tris plus protein gel (Thermo #NW00102BOX) and denatured BM-MDSC protein was resolved using an 8% Bolt Bis-Tris plus protein gel (Thermo #NW00082BOX). Gels were transferred to a PVDF membrane (Invitrogen #IB401002) using a seven-minute P3 program on an Invitrogen iBlot dry transfer system. Membranes were then blocked for one hour using 5% nonfat dry milk in TBS-T, washed three times with TBS-T and probed with primary antibody diluted with 5% BSA in TBS-T overnight at 4° C. with gentle rocking. Primary antibody was removed, and membranes were washed three times with TBS-T followed by secondary antibody diluted in TBS-T at room temperature for one hour with gentle rocking. […] Secondary antibodies used were anti-mouse-HRP (Kindle Biosciences #R1005) and anti-rabbit-HRP (Kindle Biosciences #R1006). Analysis was conducted using ImageJ (NIH Bethesda, MD) and normalized to the housekeeping protein β-actin.

CD8 T cells [2] = test: CD8 T cell differentiation by flow cytometry; conditions: 72 hours
Description: Lymph nodes and spleen were isolated from wild-type C57BL/6N mice. Tissue was mechanically dissociated with the back of a syringe plunger and passed through a […] filter. […] Treated cells were incubated at 37° C., 5% CO2 for the designed study duration. […] After staining, cells were pelleted, resuspended and run by a BD FACSymphony A3 flow cytometer.

CD3 T cells = test: Cytokine/chemokine quantification (Milliplex); conditions: 72 hours
Description: Lymph nodes and spleen were isolated from wild-type C57BL/6N mice. Tissue was mechanically dissociated with the back of a syringe plunger and passed through a […] filter. […] Treated cells were incubated at 37° C., 5% CO2 for the designed study duration. […] Culture supernatant was harvested and clarified by centrifugation at 2000 RPMI for five minutes. […] Cytokines and chemokines were quantified using a Milliplex mouse cytokine/chemokine magnetic bead panel (Millipore […]32) on a Luminex MAGPIX system with undiluted samples following the manufacturer's instructions.

## O=c1nc(OC[C@@H]2COCCO2)cc2n1CCc1cc(C#CC3CC3)ccc1-2 [GLPG1205, 9-Cyclopropylethynyl-2-((S)-1-[1,4]dioxan-2-ylmethoxy)-6,7-dihydropyrimido[6,1-a]isoquinolin-4-one]
CD8 T cells [1]
  average expression of genes of glucose, fatty acid, lipid metabolism and cytotoxicity (heatmap): dramatic increase in gene expression
  total number of CD8 T cells compared to DMSO control: increase in total CD8
CD8 T cells [1]; DMSO 26.6%
  fraction of CD8 T cells identified as naïve: 16.2%
CD8 T cells [1]; DMSO 27.8%
  fraction of CD8 T cells identified as early-effector: 41.3%
CD8 T cells [1]; DMSO 45.6%
  fraction of CD8 T cells identified as effector: 42.5%
BM-MDSCs; 3 μM
  arginase-I levels, reduction compared to DMSO: 1.79 times
  iNOS production, reduction compared to DMSO: 1.5 times
BM-MDSCs; 10 μM
  arginase-I levels, reduction compared to DMSO: 2.75 times
  iNOS production, reduction compared to DMSO: 1.35 times
BM-MDSCs; bone marrow derived murine MDSC, descending concentrations (FIG. 4)
  expression of Arginase 1 and iNOS (Western blot): decreases the expression of Arginase 1 protein
CD8 T cells [2]; 3 μM
  effector/memory CD8 compartment (CD62L−, CD44+), average increase compared to DMSO control: 23.57%
  naïve CD8 T cell compartment (CD62L+, CD44−), average reduction compared to DMSO control: 32.54%
CD8 T cells [2]; 10 μM
  effector/memory CD8 compartment (CD62L−, CD44+), average increase compared to DMSO control: 37.93%
  naïve CD8 T cell compartment (CD62L+, CD44−), average reduction compared to DMSO control: 74.69%
CD3 T cells; 3 μM
  Eotaxin (CCL11) levels, increase vs DMSO: 19.87%
  G-CSF, increase vs DMSO: 16.64%
  GM-CSF, increase vs DMSO: 32.93%
  IL-1P, increase vs DMSO: 20.06%
  IL-2 production, increase vs DMSO: 51.36%
  IL-3 secretion, increase vs DMSO: 31.91%
  IL-4 secretion, increase vs DMSO: 26.55%
  IL-6, increase vs DMSO: 30.71%
  IL-9, increase vs DMSO: did not elicit any significant changes
  IL-10, increase vs DMSO: 52.24%
  IL-12(p40) levels, increase vs DMSO: 16.99%
  IL-15 secretion, increase vs DMSO: 16.91%
  IP-10 (CXCL10) secretion, increase vs DMSO: 28.52%
  KC (CXCL1) concentrations, increase vs DMSO: 19.27%
  LIF, increase vs DMSO: 41.71%
  TNFα, increase vs DMSO: 39.64%
  VEGF, increase vs DMSO: 51.99%
CD3 T cells; 10 μM
  Eotaxin (CCL11) levels, increase vs DMSO: 16.57%
  G-CSF, increase vs DMSO: 26.52%
  IL-2 production, increase vs DMSO: 31.1%
  IL-3 secretion, increase vs DMSO: 38.29%
  IL-4 secretion, increase vs DMSO: did not elicit an effect
  IL-6, increase vs DMSO: 28.38%
  IL-9, increase vs DMSO: 19.94%
  IL-10, increase vs DMSO: 58.46%
  IL-12(p40) levels, increase vs DMSO: 21.77%
  IL-15 secretion, increase vs DMSO: 15.05%
  IP-10 (CXCL10) secretion, increase vs DMSO: 73.65%
  KC (CXCL1) concentrations, increase vs DMSO: 25.62%
  LIF, increase vs DMSO: 52.21%
  LIX (CXCL5), increase vs DMSO: 20.94%
  MCP-1 (CCL2), increase compared to DMSO control: 21.29%
  RANTES (CCL5), increase vs DMSO: 29.8%
  TNFα, increase vs DMSO: 50.91%
  VEGF, increase vs DMSO: 71.18%
